Experimental data published in US20260275280A1, “DIRECTED DIFFERENTIATION PROTOCOLS TO DERIVE BONE FIDE SPINAL SENSORY INTERNEURONS” (THE REGENTS OF THE UNIVERSITY OF CALIFORNIA, priority 2022, published 2026).

System: mESCs derived spinal NPCs
Test: Sufficiency of Wnt ligands or CHIR for dI fates (RT-qPCR at day 9)
Type: cell-based, mouse
Procedure: The mouse ESC line, MM13, was routinely maintained in ES cell media (DMEM+20% FBS) with 100u/ml of mouse leukocyte inducing factor (LIF). […] To prepare cells for the differentiation, ESC colonies were dissociated with 0.25% trypsin and plated on gelatin coated plates at 1:10 dilution to reduce MEF transfer. Cells cultured on gelatin coated plates and allowed to proliferate for 1-2 days. To initiate differentiation, cells were plated on 0.1% gelatin coated 24-well CellBIND dishes (Corning) at 20,000 cells/ml density in 0.5 ml/well N2/B27 medium that contains 10 ng/ml basic fibroblast growth factor (bFGF). The N2/B27 medium contains 1:1 portions of Advanced Dulbecco's modified Eagle Media (DMEM) F12 (Hyclone) and Neurobasal media (Thermo Fisher Scientific) supplemented with 0.5×N2, 1×B27 supplement (with Vitamin A), 2 mM L-glutamine, 0.1 mM 2-mercaptoethanol (ME), and 1% BSA. On day 1, small colonies of cells can be observed attached to the bottom of the wells. On day 2, cells were supplemented with 10 ng/ml bFGF and 5 μM CHIR99021 for 24 hours to induce a neuromesodermal identity (Gouti et al., 2014). On day 3, media was changed as follows: for protocol 1, cells were exposed to 100 nM RA for 48 hrs. For protocol 2, 10 ng/ml human recombinant BMP4 (Thermo Fisher Scientific) was added concomitantly with 100 nM RA (RA+BMP4) for 48 hrs. For protocol 3, cells were exposed to 100 nM RA for 24 hrs, followed by a pulse of RA+BMP4 for another 24 hours. To induce terminal differentiation in all three conditions, the medium containing growth factors was replaced with basic N2/B27 medium at day 5, and cell allowed to differentiate to day 9. At the end of the differentiation, the cultures were fixed for immunohistochemical analysis or lysed to obtain RNA for RNA-Seq or quantitative reverse transcriptase PCR analysis.
Quantitative (a) RT-PCR analysis: RNA was isolated with RNeasy Mini Kit (Qiagen, cat no. 74104), and converted to cDNA using Superscript IV First Strand Synthesis kit (Thermo Fisher Scientific). qRT-PCR was performed using SYBR Green PCR Master Mix (Applied Biosystems) on Roche 480 Lightcycler (Roche). The relative fold expression was calculated using 2-AACt method of comparing the expression of the target gene with that of the housekeeping gene glyceraldehyde 3-phosphate dehydrogenase (Gapdh). All experiments were repeated at least 2-3 times (technical replicates) from at least two independent differentiations (biological replicates), and data is represented as mean±SEM.
We assessed these models, first by determining the effect of canonical Wnts (Wnt1, Wnt2, and Wnt3a), a non-canonical Wnt (Wnt9b) and a small molecule Wnt agonist (CHIR99021) on dI identity in the RA±BMP4 protocols. When Wnts were added in combination with RA, they were unable to induce the dorsal-most dIs by day 9 (FIG. 14A). […] Thus, Wnts are not sufficient to direct dI fate identity.

Cc1c[nH]c(-c2cnc(NCCNc3ccc(C#N)cn3)nc2-c2ccc(Cl)cc2Cl)n1 [CHIR, CHIR99021]
identity of the BMP4-mediated dI fates (Lhx2, Foxd3, IsI2) (RA+BMP4 protocol, Wnts 100 ng/ml or CHIR 5 μM for 24 hrs at day 5): no significant effect | induction of BMP4 dependent dI fates (Lhx2, Foxd3, IsI1) (added with RA at day 4 for 24 hrs, Wnts 100 ng/ml, CHIR 5 μM): do not induce BMP4-dependent dI fates
